Experimental data: patent US20250163061A1 (Bala Therapeutics, Inc., priority 2021, published 2025)

Experiments:
MOLM-13 = MOLM-13 cellular growth inhibition assay (CellTiter-Glo); format: cell-based; details: Homo sapiens, 168 h, MOLM-13 cells, 7 days of incubation
Outline: (§1)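 HEK293 (500 cells/well, adhered overnight) and MV4-11 or MOLM-13 (2000 cells/well) were grown in DMEM or RPMI with 10% FBS at 37° C, 5% CO2. Compound was added with 0.2% final DMSO and re-added at day 3. After 7 days, viability was read as CellTiter-Glo luminescence.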

MV4-11 = MV4-11 cellular growth inhibition assay (CellTiter-Glo); format: cell-based; details: Homo sapiens, 168 h, MV4-11 cells, 7 days of incubation
Outline: as §1

[1] = HEK293 cellular growth inhibition assay (CellTiter-Glo); format: cell-based; details: human, HEK293 cells, 7 days of incubation
Outline: as §1

recombinant MEN1 protein = recombinant MEN1 protein (Homo sapiens (Human), UniProt O00255); assay: Primary fluorescence polarization assay of MEN1 activity inhibition (MEN1 / MLL4-43 peptide interaction); format: binding; details: MEN1 10 nM, fluorescein-labeled MLL4-43 peptide 0.5 nM
Chain of recombinant MEN1 protein (O00255 whole entry): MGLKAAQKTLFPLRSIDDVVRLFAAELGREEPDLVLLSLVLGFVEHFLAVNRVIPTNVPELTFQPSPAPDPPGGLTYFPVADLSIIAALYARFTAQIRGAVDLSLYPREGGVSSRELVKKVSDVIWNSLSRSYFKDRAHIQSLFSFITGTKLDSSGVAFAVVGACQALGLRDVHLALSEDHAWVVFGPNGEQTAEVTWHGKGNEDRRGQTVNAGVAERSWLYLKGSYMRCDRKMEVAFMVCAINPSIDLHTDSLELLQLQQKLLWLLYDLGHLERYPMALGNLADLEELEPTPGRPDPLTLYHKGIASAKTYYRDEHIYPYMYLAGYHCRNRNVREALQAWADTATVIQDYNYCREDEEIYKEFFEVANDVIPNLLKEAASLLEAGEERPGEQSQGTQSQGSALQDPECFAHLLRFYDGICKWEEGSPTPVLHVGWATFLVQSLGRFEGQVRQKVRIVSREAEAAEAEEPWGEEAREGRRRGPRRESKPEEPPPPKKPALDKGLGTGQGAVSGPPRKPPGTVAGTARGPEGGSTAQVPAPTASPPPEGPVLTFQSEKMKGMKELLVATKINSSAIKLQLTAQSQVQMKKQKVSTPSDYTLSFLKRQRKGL
Description: Compound activity was determined using recombinant MEN1 protein (Creativebiomart, Cat #MEN1-35H) and a custom fluorescein-labeled MLL4-43 peptide (Eton Bioscience Inc.). Interaction between MEN1 and MLL4-43 in the presence of compounds was determined by fluorescence polarization assay using a Microplate Reader ClarioStar Plus. The reaction was carried out in assay buffer (50 mM TRIS-HCl pH 7.4-7.6, 50 mM NaCl, 1 mM DTT, 0.1 mg/ml BSA). The compounds were dispensed on a 384 well Diamond Well Plate (Axigen, Cat #P-384-120SQ-C-S) using the Biomek FX liquid handling system at 100× solutions of compounds in DMSO. 2×MEN1 mix (final concentration of MEN1 10 nM) was prepared in Assay buffer and 10 μl of mixture per well was added into 384 w white Reaction plate with NBS (Corning, Cat #4513). 10 μl of Assay buffer w/o MEN1 was used for negative control. Plates were centrifuged for 1 min at 100 g. Next step the Compounds were added to Reaction plate using Biomek station via following steps: 3 μl of 100× compounds (in DMSO) were mixed thoroughly with 27 μl Assay Buffer, then 2 μl of this mixture was added to Reaction plate with 10 μl of MEN1 mix. Plates were centrifuged for 1 min at 100 g and incubated for 20 min at room temperature. Next 8 μL of MLL4-43 peptide per well was added to final concentration of MLL 0.5 nM. Plates were incubated for 1 hour at room temperature. Then fluorescence polarization was measured using Microplate Reader.

Structure (SMILES)	CC50 (MOLM-13) [nM]	CC50 (MV4-11) [nM]	CC50 at 7 days [1] [nM]	EC50 (recombinant MEN1 protein) [nM]
CCS(=O)(=O)N1CCCN(C(C)Cn2c(C#N)cc3c(C)c(CN4CCC5(CC4)CN(c4ncnc6ccc(CC(F)(F)F)cc46)C5)ccc32)CC1 (centres unmarked) [Compound 53, 1-[2-(4-Ethylsulfonyl-1,4-diazepan-1-yl)propyl]-4-methyl-5-[[2-[6-(2,2,2-trifluoroethyl)quinazolin-4-yl]-2,7-diazaspiro[3.5]nonan-7-yl]methyl]indole-2-carbonitrile]	100 to 500	≤ 100	5000 to 10000	≤ 75
Cc1c(CN2CCC3(CC2)CN(c2cnnc4ccc(CC(F)(F)F)cc24)C3)ccc2c1cc(C#N)n2CC(C)N1CCN(S(C)(=O)=O)CC1 (centres unmarked) [Compound 80, 4-Methyl-1-[2-(4-methylsulfonylpiperazin-1-yl)propyl]-5-[[2-[6-(2,2,2-trifluoroethyl)cinnolin-4-yl]-2,7-diazaspiro[3.5]nonan-7-yl]methyl]indole-2-carbonitrile]	1000 to 5000	100 to 500	5000 to 10000	≤ 75
